Earlier results, collected in patent publication US7601870B2, “Substituted aniline derivatives” (priority 2004, dated 2009).

Tests used:
hippocampal kindling = details: rat
[1] = tested on: animal models of neuropathic pain; details: in vivo
[2] = tested on: kainic acid-induced status epilepticus; details: rat
[3] = tested on: amygdala kindling model of complex partial seizures; details: in vivo
[4] = tested on: animal models of anxiety-like behaviour; details: in vivo
[5] = tested on: K(+) current in neuronal cells
[6] = tested on: electrically induced seizures, seizures induced chemically by pentylenetetrazole, picrotoxin and NMDA, DBA/2 mouse; details: oral and intraperitoneal administration in rats and mice
[7] = tested on: seizures in epileptic patients; details: clinical trials
[8] = tested on: animal models of ethanol withdrawal syndrome; details: in vivo

Compound | progression of hippocampal kindling (hippocampal kindling) | effect in neuropathic pain models [1] | limbic neurodegeneration and markers of apoptosis [2] | activity in amygdala kindling model [3] | activity in anxiety-like behaviour models [4] | activation of K(+) current [5] | anticonvulsant activity [6] | incidence of seizures [7] | effect in ethanol withdrawal syndrome models [8]
CCOC(=O)Nc1ccc(NCc2ccc(F)cc2)cc1N [Retigabine, N-(2-amino-4-(4-fluorobenzylamino)-phenyl) carbamic acid ethyl ester] | delay the progression of hippocampal kindling | beneficial | prevent limbic neurodegeneration and the expression of markers of apoptosis | active | active | activate a K(+) current | active | effectiveness in reducing the incidence of seizures | –
NCC1(CC(=O)O)CCCCC1 [gabapentin] | – | – | – | – | – | – | – | – | very effective
